Results taken from US20220348558A1, “INHIBITORS OF ENCEPHALITIC ALPHAVIRUSES” (priority 2019, published 2022).

What was measured:
[1] = system: VEEV TC83; test: microbe, parasite or virus in culture; assay type: cell-based; settings: Venezuelan equine encephalitis virus, Vero 76, 48 h, read-out: VEEV TC83 EC50 nM
[2] = system: WEEV California; test: microbe, parasite or virus in culture; assay type: cell-based; settings: Western equine encephalitis virus, Vero 76, 48 h, read-out: WEEV California EC50 nM

Row | SMILES | EC50 [1] [nM] | EC50 [2] [nM]
1 | COc1ccc(-n2c([C@H]3CCCN3)nc3c(-c4ccc(C(F)(F)F)nc4)cc([N+](=O)[O-])cc3c2=O)cc1F [Example 91, (R)-3-(3-fluoro-4-methoxyphenyl)-6-nitro-2-(pyrrolidin-2-yl)-8-(6-(trifluoromethyl)pyridin-3-yl) quinazolin-4 (3H)-one] | 1 to 50 | 1 to 50
2 | COc1ccc(-n2c([C@H]3CCCN3)nc3c(-c4ccc(C)nc4)cc([N+](=O)[O-])cc3c2=O)cc1F [Example 92, (R)-3-(3-fluoro-4-methoxyphenyl)-8-(6-methylpyridin-3-yl)-6-nitro-2-(pyrrolidin-2-yl) quinazolin-4 (3H)-one] | 1 to 50 | 1 to 50
3 | COc1ccc(-n2c([C@H]3CCCN3)nc3c(-c4cncc(F)c4)cc([N+](=O)[O-])cc3c2=O)cc1F [Example 93, (R)-3-(3-fluoro-4-methoxyphenyl)-8-(5-fluoropyridin-3-yl)-6-nitro-2-(pyrrolidin-2-yl) quinazolin-4 (3H)-one] | 1 to 50 | 1 to 50
4 | COc1ccc(-n2c([C@H]3CCCN3)nc3c(-c4cncc(C#N)c4)cc([N+](=O)[O-])cc3c2=O)cc1F [Example 94, (R)-3-(3-fluoro-4-methoxyphenyl)-8-(5-cyanopyridin-3-yl)-6-nitro-2-(pyrrolidin-2-yl) quinazolin-4 (3H)-one] | 1 to 50 | 51 to 150
5 | COc1ccc(-n2c([C@H]3CCCN3)nc3c(C4CC4)cc([N+](=O)[O-])cc3c2=O)cc1 [Example 95, (R)-8-cyclopropyl-3-(4-methoxyphenyl)-6-nitro-2-(pyrrolidin-2-yl) quinazolin-4 (3H)-one] | 1 to 50 | 51 to 150
6 | COc1ccc(-n2c([C@H]3CCCN3)nc3c(Br)cc(C#N)cc3c2=O)cc1F [Example 96, (R)-8-bromo-3-(3-fluoro-4-methoxyphenyl)-4-oxo-2-(pyrrolidin-2-yl)-3,4-dihydroquinazoline-6-carbonitrile] | 1 to 50 | 1 to 50
7 | COc1ccc(-n2c([C@@H]3CCCN3)nc3c(Br)cc(C#N)cc3c2=O)cc1F [Example 97, (S)-8-bromo-3-(3-fluoro-4-methoxyphenyl)-4-oxo-2-(pyrrolidin-2-yl)-3,4-dihydroquinazoline-6-carbonitrile] | 1 to 50 | 1 to 50
8 | COc1ccc(-n2c([C@H]3CCCN3C)nc3c(-c4cn(C)cn4)cc(C#N)cc3c2=O)cc1F [Example 98, (R)-3-(3-fluoro-4-methoxyphenyl)-8-(1-methyl-1H-imidazol-4-yl)-2-(1-methylpyrrolidin-2-yl)-4-oxo-3,4-dihydroquinazoline-6-carbonitrile] | 1 to 50 | 1 to 50
9 | COc1ccc(-n2c([C@H]3CCCN3)nc3c(-c4ccc(F)nc4)cc(C#N)cc3c2=O)cc1F [Example 99, (R)-3-(3-fluoro-4-methoxyphenyl)-8-(6-fluoropyridin-3-yl)-4-oxo-2-(pyrrolidin-2-yl)-3,4-dihydroquinazoline-6-carbonitrile] | 1 to 50 | 1 to 50
10 | COc1ccc(-n2c([C@H]3CCCN3)nc3c(-c4ccc(C)nc4)cc(C#N)cc3c2=O)cc1F [Example 102, (R)-3-(3-fluoro-4-methoxyphenyl)-8-(6-methylpyridin-3-yl)-4-oxo-2-(pyrrolidin-2-yl)-3,4-dihydroquinazoline-6-carbonitrile] | 1 to 50 | 1 to 50
11 | COc1ccc(-n2c([C@H]3CCCN3)nc3c(-c4ccnc(F)c4)cc(C#N)cc3c2=O)cc1F [Example 104, (R)-3-(3-fluoro-4-methoxyphenyl)-8-(2-fluoropyridin-4-yl)-4-oxo-2-(pyrrolidin-2-yl)-3,4-dihydroquinazoline-6-carbonitrile] | 1 to 50 | 1 to 50
12 | COc1ccc(-n2c([C@H]3CCCN3)nc3c(-c4cncnc4)cc(C#N)cc3c2=O)cc1F [Example 105, (R)-3-(3-fluoro-4-methoxyphenyl)-4-oxo-8-(pyrimidin-5-yl)-2-(pyrrolidin-2-yl)-3,4-dihydroquinazoline-6-carbonitrile] | 51 to 150 | 151 to 500
13 | COc1ccc(-n2c([C@H]3CCCN3)nc3c(-c4cncc(F)c4)cc(C#N)cc3c2=O)cc1F [Example 106, (R)-3-(3-fluoro-4-methoxyphenyl)-8-(5-fluoropyridin-3-yl)-4-oxo-2-(pyrrolidin-2-yl)-3,4-dihydroquinazoline-6-carbonitrile] | 1 to 50 | 1 to 50
14 | COc1ccc(-n2c([C@@H]3CCCN3)nc3c(-c4cccnc4)cc(C#N)cc3c2=O)cc1F [Example 108, (S)-3-(3-fluoro-4-methoxyphenyl)-4-oxo-8-(pyridin-3-yl)-2-(pyrrolidin-2-yl)-3,4-dihydroquinazoline-6-carbonitrile] | 1 to 50 | 1 to 50
15 | COc1ccc(-n2c([C@H]3CCCN3)nc3c(-c4ccncc4)cc(C#N)cc3c2=O)cc1F [Example 109, (R)-3-(3-fluoro-4-methoxyphenyl)-4-oxo-8-(pyridin-4-yl)-2-(pyrrolidin-2-yl)-3,4-dihydroquinazoline-6-carbonitrile] | 1 to 50 | 1 to 50
16 | COc1ccc(-n2c([C@@H]3CCCN3)nc3c(-c4ccncc4)cc(C#N)cc3c2=O)cc1F [Example 110, (S)-3-(3-fluoro-4-methoxyphenyl)-4-oxo-8-(pyridin-4-yl)-2-(pyrrolidin-2-yl)-3,4-dihydroquinazoline-6-carbonitrile] | 1 to 50 | 1 to 50
17 | COc1ccc(-n2c(C3CCCN3C)nc3c(-c4ccc(C)nc4)cc(C#N)cc3c2=O)cc1F (centres unmarked) [Example 111, 3-(3-fluoro-4-methoxyphenyl)-8-(6-methylpyridin-3-yl)-2-(1-methylpyrrolidin-2-yl)-4-oxo-3,4-dihydroquinazoline-6-carbonitrile] | 1 to 50 | 1 to 50
18 | COc1ccc(-n2c([C@H]3C[C@H](F)CN3)nc3c(-c4ccc(C)nc4)cc(C#N)cc3c2=O)cc1F [Example 112, 3-(3-fluoro-4-methoxyphenyl)-2-((2R,4S)-4-fluoropyrrolidin-2-yl)-8-(6-methylpyridin-3-yl)-4-oxo-3,4-dihydroquinazoline-6-carbonitrile] | 1 to 50 | 51 to 150
19 | COc1ccc(-n2c([C@H]3CCCN3)nc3c(N4CCOCC4)cc(C#N)cc3c2=O)cc1F [Example 113, (R)-3-(3-fluoro-4-methoxyphenyl)-8-morpholino-4-oxo-2-(pyrrolidin-2-yl)-3,4-dihydroquinazoline-6-carbonitrile] | 1 to 50 | 51 to 150
20 | COc1ccc(-n2c(C3CCCN3)nc3c(N4CCC(N5CCOCC5)CC4)cc(C#N)cc3c2=O)cc1F (centres unmarked) [Example 114, 3-(3-fluoro-4-methoxyphenyl)-8-(4-morpholinopiperidine-1-yl)-4-oxo-2-(pyrrolidin-2-yl)-3,4-dihydroquinazoline-6-carbonitrile] | 1 to 50 | 51 to 150
21 | COc1ccc(-n2c([C@H]3CCCN3C)nc3c(-c4ccoc4)cc(C#N)cc3c2=O)cc1F [Example 115, (R)-3-(3-fluoro-4-methoxyphenyl)-8-(furan-3-yl)-2-(1-methylpyrrolidin-2-yl)-4-oxo-3,4-dihydroquinazoline-6-carbonitrile] | 1 to 50 | 1 to 50
22 | COc1ccc(-n2c([C@@H]3C[C@@H](O)CN3)nc3c(-c4ccc(C)nc4)cc(C#N)cc3c2=O)cc1F [Example 116, 3-(3-fluoro-4-methoxyphenyl)-2-((2S,4R)-4-hydroxypyrrolidin-2-yl)-8-(6-methylpyridin-3-yl)-4-oxo-3,4-dihydroquinazoline-6-carbonitrile] | > 1000 | > 1000
23 | COc1ccc(-n2c(C[C@H]3CCCN3)nc3c(-c4ccc(C)nc4)cc(C#N)cc3c2=O)cc1F [Example 117, (R)-3-(3-fluoro-4-methoxyphenyl)-8-(6-methylpyridin-3-yl)-4-oxo-2-(pyrrolidin-2-ylmethyl)-3,4-dihydroquinazoline-6-carbonitrile] | 151 to 500 | 501 to 1000
24 | COc1c(F)cc(-n2c([C@H]3CCCN3)nc3c(-c4ccc(C(F)(F)F)nc4)cc(C#N)cc3c2=O)cc1F [Example 118, (R)-3-(3,5-difluoro-4-methoxyphenyl)-4-oxo-2-(pyrrolidin-2-yl)-8-(6-(trifluoromethyl)pyridin-3-yl)-3,4-dihydroquinazoline-6-carbonitrile] | 1 to 50 | 51 to 150
25 | COc1c(F)cc(-n2c([C@H]3CCCN3)nc3c(-c4ccc(C)nc4)cc(C#N)cc3c2=O)cc1F [Example 119, (R)-3-(3,5-difluoro-4-methoxyphenyl)-8-(6-methylpyridin-3-yl)-4-oxo-2-(pyrrolidin-2-yl)-3,4-dihydroquinazoline-6-carbonitrile] | 1 to 50 | 1 to 50
26 | COc1ccc(-n2c([C@H]3CCC(=O)N3)nc3c(-c4ccc(C)nc4)cc(C#N)cc3c2=O)cc1F [Example 121, (R)-3-(3-fluoro-4-methoxyphenyl)-8-(6-methylpyridin-3-yl)-4-oxo-2-(5-oxopyrrolidin-2-yl)-3,4-dihydroquinazoline-6-carbonitrile] | > 1000 | > 1000
27 | COc1ccc(-n2c([C@H]3C[C@H](O)CN3)nc3c(-c4ccc(C)nc4)cc(C#N)cc3c2=O)cc1F [Example 122, 3-(3-fluoro-4-methoxyphenyl)-2-((2R,4S)-4-hydroxypyrrolidin-2-yl)-8-(6-methylpyridin-3-yl)-4-oxo-3,4-dihydroquinazoline-6-carbonitrile] | 1 to 50 | 51 to 150
28 | COc1ccc(-n2c(C3CCCN3)nc3c(-c4cnc5ccccc5c4)cc(C#N)cc3c2=O)cc1F (centres unmarked) [Example 123, 3-(3-fluoro-4-methoxyphenyl)-4-oxo-2-(pyrrolidin-2-yl)-8-(quinolin-3-yl)-3,4-dihydroquinazoline-6-carbonitrile] | 1 to 50 | 1 to 50
